Test results: PubChem BioAssay (NCI)
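Values below derive from 48-hour exposures of cells grown in 96-well plates, with endpoints linearly interpolated between the two concentrations bracketing the appropriate inhibition level. GI50 is the concentration that inhibits growth by half. Definition used: TGI = concentration required for complete inhibition of growth.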

Columns and labels:
Assay in all cases: growth of human tumour cells (NCI), 48 h
HOP-62 NSCLC = system: HOP-62 NSCLC
NCI-H226 lung = system: NCI-H226 lung
T-47D breast = system: T-47D breast
IGROV1 ovarian = system: IGROV1 ovarian
HT29 colon = system: HT29 colon
SNB-75 CNS = system: SNB-75 CNS
SW-620 colon = system: SW-620 colon
RXF 393 renal = system: RXF 393 renal
K-562 leukemia = system: K-562 leukemia
U251 CNS = system: U251 CNS

SMILES	TGI (HOP-62 NSCLC)	TGI (NCI-H226 lung)	TGI (T-47D breast)	TGI (IGROV1 ovarian)	TGI (HT29 colon)	TGI (SNB-75 CNS)	TGI (SW-620 colon)	TGI (RXF 393 renal)	TGI (K-562 leukemia)	TGI (U251 CNS)	GI50 (HOP-62 NSCLC)	GI50 (NCI-H226 lung)	GI50 (T-47D breast)	GI50 (IGROV1 ovarian)	GI50 (HT29 colon)	GI50 (SNB-75 CNS)	GI50 (SW-620 colon)	GI50 (RXF 393 renal)	GI50 (K-562 leukemia)	GI50 (U251 CNS)
Cc1ccc(/C(C#N)=C/c2cccc([N+](=O)[O-])c2)cc1	> 100 µM	> 100 µM	> 100 µM	> 100 µM	> 100 µM	39.6 µM	> 100 µM	41 µM	> 100 µM	> 100 µM	–	–	–	–	–	–	–	–	–	–
COC(=O)c1cncc(/C=C/c2c(C)cc(O)cc2C)c1	> 20.5 µM	> 25 µM	> 22.2 µM	> 25 µM	> 25 µM	> 18.8 µM	> 25 µM	16.7 µM	> 19 µM	> 25 µM	9.82 µM	> 12.7 µM	11 µM	> 19.8 µM	> 15.4 µM	> 9.93 µM	8.63 µM	5.97 µM	2.32 µM	> 16.7 µM
O=C(CCCCCCN1CC(=O)N2[C@@H](c3ccc(Cl)c(Cl)c3)c3[nH]c4ccccc4c3C[C@H]2C1=O)NO	9.35 µM	12.2 µM	25.2 µM	5.07 µM	9 µM	7 µM	9.3 µM	6.04 µM	21.4 µM	8.25 µM	3.88 µM	4.52 µM	1.58 µM	1.32 µM	2.93 µM	0.832 µM	1.97 µM	1.73 µM	1.54 µM	2.78 µM
CC1(C)CC(=O)C2=C(C1)OC(N)=C(c1nc(-c3ccccc3)cs1)C2c1ccc(Br)cc1 (stereo not drawn)	> 150 µg/mL	96.8 µg/mL	> 150 µg/mL	> 150 µg/mL	> 150 µg/mL	46.9 µg/mL	> 150 µg/mL	126 µg/mL	> 150 µg/mL	> 150 µg/mL	54.4 µg/mL	22.8 µg/mL	44.6 µg/mL	90.9 µg/mL	67.4 µg/mL	0.547 µg/mL	86 µg/mL	42.5 µg/mL	68.8 µg/mL	71.2 µg/mL
CC1=C(CC(=O)c2cccc([N+](=O)[O-])c2)C(=O)c2ccccc2C1=O	16.1 µM	46.5 µM	8.47 µM	29 µM	58.8 µM	10.2 µM	18.9 µM	16.6 µM	38.9 µM	21.6 µM	4.05 µM	18.7 µM	2.46 µM	4.62 µM	20.1 µM	2.22 µM	4.01 µM	3.14 µM	7.25 µM	6.74 µM
COC(=O)CCCCC(=O)c1c(C)[nH]c(/C=C2\N=C(c3ccc[nH]3)C=C2OC)c1C	1.87 µM	2.87 µM	2.36 µM	2.57 µM	1.41 µM	2.24 µM	1.54 µM	2 µM	1.77 µM	2.15 µM	0.475 µM	1.17 µM	0.723 µM	1.22 µM	0.198 µM	0.851 µM	0.395 µM	0.524 µM	0.403 µM	0.868 µM
O=C(CC1(O)C(=O)N(Cc2ccccc2)c2ccccc21)c1ccc(C(=O)NCC2CCC3(CC2)OOC2(CCCCC2)OO3)cc1 (stereo not drawn)	0.86 µM	10.8 µM	4.04 µM	1.62 µM	3.82 µM	3.44 µM	> 41.5 µM	1.98 µM	4.83 µM	2.17 µM	0.273 µM	3.5 µM	1.41 µM	0.408 µM	1.72 µM	1.58 µM	3.56 µM	0.705 µM	1.72 µM	0.774 µM
CC1OC(OC2C(O)CC(OC3C(O)CC(OC4CCC5(C)C(CCC6C5CC(O)C5(C)C(C7=CC(=O)OC7)CCC65O)C4)OC3C)OC2C)CC(O)C1O (stereo not drawn)	0.125 µM	0.266 µM	0.292 µM	1.11 µM	0.154 µM	0.241 µM	0.165 µM	0.0994 µM	0.122 µM	0.165 µM	0.036 µM	0.137 µM	0.0538 µM	0.127 µM	0.0417 µM	0.0765 µM	0.0423 µM	0.0293 µM	0.0319 µM	0.0514 µM
CCCCCCNC(=O)Oc1ccc(/C(=C(\C)c2ccc(Cl)cc2)c2ccc(OCCN3CCCCC3)cc2)cc1	11.9 µM	11.8 µM	7.11 µM	10.5 µM	4.02 µM	14.3 µM	5.59 µM	7.55 µM	3.51 µM	7.92 µM	5.28 µM	5.31 µM	0.722 µM	4.38 µM	1.11 µM	5.59 µM	1.54 µM	3.3 µM	0.923 µM	3.52 µM
Cn1cc(C2=C(c3cccc(OC[C@@H](O)CO)c3)C(=O)NC2=O)c2ccccc21	> 25 µM	> 25 µM	> 25 µM	> 25 µM	> 25 µM	> 25 µM	> 25 µM	> 25 µM	> 25 µM	> 25 µM	> 25 µM	16.9 µM	> 22.9 µM	> 25 µM	> 25 µM	0.0944 µM	> 20.1 µM	2.08 µM	17.3 µM	> 15.5 µM
CN(CCNCc1ccccn1)CCNCc1ccccn1	22.6 µM	4.2 µM	28 µM	12.6 µM	7.86 µM	16 µM	11.3 µM	3.81 µM	> 100 µM	12 µM	3.85 µM	1.92 µM	3.43 µM	3.23 µM	2.79 µM	3.04 µM	3.18 µM	1.94 µM	3.58 µM	3.48 µM
Cc1cccc2c3c(sc12)C(c1ccc(Cl)cc1)C(C#N)=C(N)O3 (stereo not drawn)	13.8 µM	7.46 µM	25.3 µM	11.8 µM	6.12 µM	0.71 µM	11.6 µM	0.649 µM	14.2 µM	11 µM	0.515 µM	0.763 µM	0.411 µM	0.426 µM	0.394 µM	0.214 µM	0.416 µM	0.215 µM	0.285 µM	0.408 µM
N#CCN1CCn2c1nsc2=S	> 100 µM	> 100 µM	> 100 µM	> 100 µM	> 100 µM	> 100 µM	> 100 µM	> 100 µM	> 100 µM	> 100 µM	> 100 µM	> 100 µM	> 100 µM	> 100 µM	> 100 µM	> 100 µM	> 100 µM	> 100 µM	48.2 µM	> 100 µM
C[C@]12CC[C@@H]3c4cc(OC(F)F)c(OS(N)(=O)=O)cc4CC[C@H]3[C@@H]1CC[C@@H]2O	27.3 µM	21.8 µM	43.2 µM	24.9 µM	13.9 µM	0.665 µM	28.8 µM	0.589 µM	> 100 µM	16.4 µM	0.592 µM	1.8 µM	0.445 µM	0.646 µM	0.371 µM	0.193 µM	0.407 µM	0.139 µM	0.364 µM	0.539 µM
CCC1(O)C(=O)OCc2c1cc1n(c2=O)Cc2cc3c(NC(=O)CN)cccc3nc2-1 (stereo not drawn)	0.622 µM	4.29 µM	–	73.4 µM	> 79.3 µM	5.14 µM	97.9 µM	3.91 µM	> 100 µM	12.1 µM	0.0847 µM	0.385 µM	0.329 µM	3.9 µM	–	0.346 µM	1.75 µM	0.515 µM	1.07 µM	0.16 µM
CCN(CC)CCCCCCNc1cc(OC)cc2cccnc12	5.11 µM	43.2 µM	38.6 µM	4.86 µM	3.43 µM	30.6 µM	3.71 µM	15.7 µM	3.58 µM	5.2 µM	2.06 µM	21.3 µM	17.5 µM	2.27 µM	1.82 µM	13.8 µM	1.79 µM	4.26 µM	1.74 µM	2.38 µM
O=[N+]([O-])c1ccc(N2CCOCC2)c2c1no[n+]2[O-]	6.58 µM	17.5 µM	4.58 µM	4.15 µM	2.8 µM	5.56 µM	2.48 µM	4.01 µM	3.57 µM	2.32 µM	1.61 µM	2.91 µM	1.14 µM	1.3 µM	1.04 µM	0.822 µM	1.18 µM	1.49 µM	1.65 µM	0.984 µM
COc1cc2nc(-c3cc(F)ccc3O)nc(N[C@@H]3CNC[C@H]3C(C)(C)O)c2cc1OC	2.76 µM	4.38 µM	3.98 µM	3.43 µM	3.85 µM	2.71 µM	3.39 µM	2.55 µM	3.94 µM	3.06 µM	1.26 µM	1.48 µM	2.06 µM	1.47 µM	2 µM	0.42 µM	1.82 µM	1.27 µM	1.6 µM	1.62 µM
